The record followed here is PubChem BioAssay (NCI).

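Values below derive from 48-hour exposures of cells grown in 96-well plates, with endpoints linearly interpolated between the two concentrations bracketing the appropriate inhibition level. GI50: concentration for 50% inhibition of growth. TGI denotes the concentration required for complete inhibition of growth.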

Among the test systems are SNB-19 CNS; SK-OV-3 ovarian; RXF 393 renal; CCRF-CEM leukemia; A498 renal; UO-31 renal; HCT-15 colon; SK-MEL-2 melanoma; SN12C renal.
Assay in all cases: DTP human tumour cell line panel, 48 h

Broadly, the TGI is the concentration giving total growth inhibition. In general, GI50 refers to the concentration at which growth is held to half of that of the control.

As to `CCOC(=O)C/C(N)=C(\C#N)C(=O)OCC`, the total growth inhibition concentration (TGI) in the experiment on SNB-19 CNS, in the experiment on SK-OV-3 ovarian, in the experiment on RXF 393 renal, in the experiment on CCRF-CEM leukemia, with A498 renal and with UO-31 renal was greater than 100 µM throughout. In addition, the TGI in the experiment on HCT-15 colon, in the experiment on SK-MEL-2 melanoma and with SN12C renal was greater than 100 µM each time.
On to `COC(=O)CSc1n[nH]c(-c2ccccc2)n1`, for which the TGI with SNB-19 CNS, with SK-OV-3 ovarian, in the experiment with CCRF-CEM leukemia, in the experiment on A498 renal, in the experiment with UO-31 renal and with HCT-15 colon was greater than 100 µM each time. The TGI with SK-MEL-2 melanoma and with SN12C renal was greater than 100 µM each time.
As for `COc1ccc(/C=c2\sc3nnc(CCC(=O)Nc4cccc(C(F)(F)F)c4)n3c2=O)cc1`, the total growth inhibition concentration (TGI) in the experiment on SNB-19 CNS is greater than 100 µM; with SK-OV-3 ovarian, greater than 100 µM; in the experiment with RXF 393 renal, 98.5 µM; in the experiment on CCRF-CEM leukemia, 90.3 µM; in the experiment on A498 renal, greater than 100 µM; in the experiment with UO-31 renal, greater than 100 µM. The total growth inhibition concentration (TGI) with HCT-15 colon, in the experiment with SK-MEL-2 melanoma and in the experiment on SN12C renal was greater than 100 µM in each case.
As for `COc1ccc2oc(-c3cc4cc(OC)ccc4o3)cc2c1`, the TGI in the experiment on SNB-19 CNS, with SK-OV-3 ovarian, with RXF 393 renal, in the experiment on CCRF-CEM leukemia, with UO-31 renal and with HCT-15 colon was greater than 100 µM each time. Also, the TGI in the experiment with SK-MEL-2 melanoma and in the experiment with SN12C renal was greater than 100 µM throughout.
In the case of `CCOc1ccc(/C=N\N2C(=O)c3ccccc3C2=O)cc1`, the TGI with SNB-19 CNS, in the experiment with RXF 393 renal, in the experiment with CCRF-CEM leukemia, in the experiment with A498 renal, with UO-31 renal and in the experiment on HCT-15 colon was greater than 100 µM in each case. The total growth inhibition concentration (TGI) in the experiment on SK-MEL-2 melanoma and in the experiment with SN12C renal was greater than 100 µM each time.
For `CN=c1ss/c(=N\C(=S)N(C)C)n1C1CCCCC1`, the concentration for total growth inhibition (TGI) with SNB-19 CNS, in the experiment on SK-OV-3 ovarian, in the experiment with RXF 393 renal, in the experiment with CCRF-CEM leukemia, in the experiment on A498 renal and in the experiment on UO-31 renal was greater than 31.6 µM each time. In addition, the TGI with HCT-15 colon, with SK-MEL-2 melanoma and with SN12C renal was greater than 31.6 µM in each case.
On to `COc1cc(-c2ccccc2)c(OC)cc1CCl`, for which the concentration for total growth inhibition (TGI) with SNB-19 CNS, with SK-OV-3 ovarian, in the experiment with RXF 393 renal, in the experiment on CCRF-CEM leukemia, in the experiment with A498 renal and with UO-31 renal was greater than 100 µM in each case. The concentration for total growth inhibition (TGI) in the experiment with HCT-15 colon, in the experiment with SK-MEL-2 melanoma and in the experiment with SN12C renal was greater than 100 µM each time.
`CC(C)(C)c1cc(Oc2ccc(C#N)c(C#N)c2)cc(C(C)(C)C)c1`: the TGI in the experiment on SNB-19 CNS, in the experiment on SK-OV-3 ovarian, in the experiment with RXF 393 renal, in the experiment on CCRF-CEM leukemia, with A498 renal and in the experiment on UO-31 renal was greater than 100 µM in each case. Further, the TGI in the experiment on HCT-15 colon, in the experiment with SK-MEL-2 melanoma and in the experiment with SN12C renal was greater than 100 µM each time.
`CN(C(=O)C12C3C4C1C1C2C3C41C(=O)N(C)C(C)(C)C)C(C)(C)C` (stereo not drawn): the TGI in the experiment with SNB-19 CNS, in the experiment with SK-OV-3 ovarian, in the experiment on CCRF-CEM leukemia, in the experiment with A498 renal, in the experiment on UO-31 renal and in the experiment with HCT-15 colon was greater than 50 µM throughout. The same compound yielded a TGI in the experiment on SN12C renal greater than 50 µM.
For `Cc1ccc(C)c(NC(=O)C(=O)CC(=O)c2cccc3ccccc23)c1`, the TGI in the experiment with SNB-19 CNS, with SK-OV-3 ovarian, in the experiment on RXF 393 renal, in the experiment with CCRF-CEM leukemia, in the experiment on A498 renal and in the experiment with UO-31 renal was greater than 100 µM in each case. The TGI in the experiment with HCT-15 colon, with SK-MEL-2 melanoma and in the experiment on SN12C renal was greater than 100 µM each time.
In the case of `O=C1C=CC(=O)c2c1cc1ccccc1c2O`, the total growth inhibition concentration (TGI) in the experiment on SNB-19 CNS is 35.9 µM; with SK-OV-3 ovarian, 34.3 µM; in the experiment on RXF 393 renal, 4.98 µM; in the experiment on CCRF-CEM leukemia, 5.91 µM; in the experiment with A498 renal it was 28.8 µM; in the experiment with UO-31 renal, 9.11 µM. For the same compound, the TGI with HCT-15 colon was 13.3 µM; in the experiment on SK-MEL-2 melanoma, 30.9 µM; in the experiment on SN12C renal, 25.2 µM.
Regarding `CC(C)(C)C1CCP(=O)(c2ccccc2)CC1` (stereo not drawn), the concentration for total growth inhibition (TGI) in the experiment on SNB-19 CNS, with SK-OV-3 ovarian, in the experiment with RXF 393 renal, in the experiment on CCRF-CEM leukemia, in the experiment with A498 renal and in the experiment on UO-31 renal was greater than 100 µM each time. The TGI with HCT-15 colon, with SK-MEL-2 melanoma and in the experiment with SN12C renal was greater than 100 µM each time.
`COC(=O)[C@H]1CC(=O)C=C2CCCC21` (stereo partly drawn): the concentration for total growth inhibition (TGI) in the experiment with SNB-19 CNS, with SK-OV-3 ovarian, in the experiment with RXF 393 renal, in the experiment with CCRF-CEM leukemia, in the experiment on A498 renal and in the experiment on UO-31 renal was greater than 100 µM throughout. The total growth inhibition concentration (TGI) in the experiment with HCT-15 colon, with SK-MEL-2 melanoma and with SN12C renal was greater than 100 µM throughout.
Consider `O=C(O)/C(=C/c1ccccc1[N+](=O)[O-])c1cccs1`, for which the concentration for total growth inhibition (TGI) in the experiment with SNB-19 CNS, in the experiment on SK-OV-3 ovarian, with A498 renal, in the experiment with UO-31 renal, in the experiment on HCT-15 colon and in the experiment with SK-MEL-2 melanoma was greater than 100 µM in each case. Besides, the TGI with SN12C renal was greater than 100 µM.
Take `CC1=C(C(=O)Nc2cccc(C(F)(F)F)c2)C(c2ccccc2F)C(C(=O)Nc2cccc(C(F)(F)F)c2)=C(C)N1`: the TGI in the experiment with SNB-19 CNS came out at 25.8 µM; with SK-OV-3 ovarian, 25.9 µM; with RXF 393 renal, 15.5 µM; in the experiment on CCRF-CEM leukemia it was 12.4 µM; in the experiment on A498 renal, 24.3 µM; with UO-31 renal, 17.3 µM. Further, the TGI was found to be 11 µM in the experiment on SK-MEL-2 melanoma and 23.9 µM in the experiment with SN12C renal.
For the compound `CC(=O)n1cc(CC(C)O)c(=O)[nH]c1=O` (stereo not drawn), the TGI with SNB-19 CNS, in the experiment on SK-OV-3 ovarian, in the experiment on A498 renal, with UO-31 renal, in the experiment with HCT-15 colon and in the experiment with SK-MEL-2 melanoma was greater than 100 µM each time. Besides, in the experiment with SN12C renal, the total growth inhibition concentration (TGI) came out at 31.2 µM.
For `NC(=O)c1ccccc1NC(=O)C(=O)Nc1n[nH]c(N)n1`, the concentration for total growth inhibition (TGI) with SNB-19 CNS, in the experiment with SK-OV-3 ovarian, in the experiment on RXF 393 renal, in the experiment with CCRF-CEM leukemia, with A498 renal and in the experiment with UO-31 renal was greater than 100 µM throughout. Further, the TGI with HCT-15 colon, with SK-MEL-2 melanoma and with SN12C renal was greater than 100 µM in each case.
Turning to `Cc1nn2c(=O)n(-c3cccc(-n4nnc5c(-c6ccccc6)c(C)nn5c4=O)c3C)nnc2c1-c1ccccc1`, the TGI with SNB-19 CNS, in the experiment on SK-OV-3 ovarian, in the experiment with RXF 393 renal, with CCRF-CEM leukemia, in the experiment on A498 renal and with UO-31 renal was greater than 100 µM in each case. Further, the values for the TGI with HCT-15 colon, in the experiment on SK-MEL-2 melanoma and in the experiment with SN12C renal were 63.8 µM, 17.5 µM and 36.5 µM, respectively.
Consider `Cc1ccc(SC2C(C)(C)N(C(C)C)P2(=O)N(C(C)C)C(C)C)cc1` (stereo not drawn), for which the TGI in the experiment on SNB-19 CNS is greater than 100 µM; in the experiment on SK-OV-3 ovarian, greater than 100 µM; in the experiment on CCRF-CEM leukemia, greater than 55.7 µM; with A498 renal, greater than 100 µM; in the experiment with UO-31 renal it was greater than 100 µM; with HCT-15 colon it was greater than 100 µM. Besides, the TGI in the experiment on SK-MEL-2 melanoma and in the experiment on SN12C renal was greater than 100 µM throughout.
Take `Cc1ccc(S(=O)(=O)Nc2cccc(C)c2C)cc1`: the concentration for total growth inhibition (TGI) was greater than 100 µM in the experiment with SNB-19 CNS; greater than 100 µM in the experiment on SK-OV-3 ovarian; 84 µM in the experiment on RXF 393 renal; greater than 100 µM in the experiment on CCRF-CEM leukemia; greater than 100 µM with A498 renal; greater than 100 µM with UO-31 renal. In addition, the TGI in the experiment with HCT-15 colon and in the experiment with SN12C renal was greater than 100 µM throughout.
Regarding `O=S1c2ccccc2N=C(c2ccc3ccccc3c2)CC1c1ccccc1F` (stereo not drawn), the total growth inhibition concentration (TGI) was greater than 100 µM in the experiment with SNB-19 CNS; greater than 100 µM in the experiment with SK-OV-3 ovarian; greater than 100 µM in the experiment on RXF 393 renal; greater than 100 µM with CCRF-CEM leukemia; 79.7 µM in the experiment on A498 renal; greater than 100 µM in the experiment with UO-31 renal. The TGI with HCT-15 colon, in the experiment with SK-MEL-2 melanoma and in the experiment on SN12C renal was greater than 100 µM throughout.
Consider `CC(N)CN.CC(N)CN.[Cl-].[O]=[Os+2]=[O]` (stereo not drawn), for which the GI50 in the experiment on SNB-19 CNS is greater than 100 µM; in the experiment with RXF 393 renal it was greater than 100 µM; in the experiment on UO-31 renal, 93.3 µM; in the experiment with HCT-15 colon, greater than 100 µM; with SK-MEL-2 melanoma, greater than 100 µM; with SN12C renal, greater than 100 µM. The TGI in the experiment on SNB-19 CNS, in the experiment on RXF 393 renal, with UO-31 renal, with HCT-15 colon, in the experiment on SK-MEL-2 melanoma and in the experiment on SN12C renal was greater than 100 µM each time.
In the case of `COc1ccc(C2c3cc4c(c(OC)c3CC3OCC(=O)C32)OCO4)cc1OC` (stereo not drawn), the 50% growth inhibitory concentration (GI50) in the experiment with SNB-19 CNS, in the experiment on SK-OV-3 ovarian, with CCRF-CEM leukemia, in the experiment with A498 renal, in the experiment with UO-31 renal and in the experiment with HCT-15 colon was less than 0.01 µM throughout. In addition, the TGI in the experiment on SNB-19 CNS is greater than 100 µM; in the experiment with SK-OV-3 ovarian, greater than 100 µM; with CCRF-CEM leukemia it was less than 0.01 µM; in the experiment with A498 renal, greater than 100 µM; with UO-31 renal, 48.4 µM; in the experiment with HCT-15 colon, greater than 100 µM. Further, the total growth inhibition concentration (TGI) in the experiment on SK-MEL-2 melanoma and in the experiment with SN12C renal was greater than 100 µM in each case.
